Assays:
DAT = conditions: read-out: Ki DAT; ref Newman and Katz (2009); cited from earlier work
Muscarinic M3 = Muscarinic M3 (Homo sapiens, UniProt P20309); experiment: receptor screen, Muscarinic M3; type: binding; conditions: read-out: Ki Muscarinic M3, [3H]N-methylscopolamine
SERT = conditions: read-out: Ki SERT; ref Woolverton et al., Psychopharmacology (2001); cited from earlier work
Muscarinic M2 = molecular target: T1, Muscarinic M2 (Homo sapiens, UniProt P08172); experiment: receptor screen, Muscarinic M2; type: binding; conditions: read-out: Ki Muscarinic M2, [3H]N-methylscopolamine
T1 sequence (P08172 1-466): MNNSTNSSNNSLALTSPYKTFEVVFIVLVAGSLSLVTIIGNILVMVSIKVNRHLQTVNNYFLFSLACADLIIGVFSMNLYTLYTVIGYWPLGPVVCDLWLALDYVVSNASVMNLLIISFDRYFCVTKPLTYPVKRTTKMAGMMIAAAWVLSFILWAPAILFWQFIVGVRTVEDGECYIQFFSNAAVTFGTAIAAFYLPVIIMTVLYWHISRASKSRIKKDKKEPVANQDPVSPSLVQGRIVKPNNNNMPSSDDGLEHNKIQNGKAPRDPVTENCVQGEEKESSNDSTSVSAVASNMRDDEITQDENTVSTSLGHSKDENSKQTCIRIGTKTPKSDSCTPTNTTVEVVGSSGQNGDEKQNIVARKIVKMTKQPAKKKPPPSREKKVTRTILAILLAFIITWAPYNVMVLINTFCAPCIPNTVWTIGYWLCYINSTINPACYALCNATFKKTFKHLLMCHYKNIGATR

rats = experiment: Place conditioning; type: in vivo; conditions: rat, i.p. (1 to 10 mg/kg), injected immediately before conditioning sessions
[1] = system: Glutamate, NMDA, phencyclidine; experiment: receptor screen, Glutamate, NMDA, phencyclidine; type: binding, Rat; conditions: [3H]TCP, inactive = displacement at 10,000 nM less than 75%
NET = conditions: read-out: Ki NET; ref Woolverton et al., Psychopharmacology (2001); cited from earlier work
Adenosine A1 = molecular target: T2, Adenosine A1 (Homo sapiens, UniProt P30542); experiment: receptor screen, Adenosine A1; type: binding; conditions: [3H]DPCPX, inactive = displacement at 10,000 nM less than 75%
T2 sequence (P30542 1-326): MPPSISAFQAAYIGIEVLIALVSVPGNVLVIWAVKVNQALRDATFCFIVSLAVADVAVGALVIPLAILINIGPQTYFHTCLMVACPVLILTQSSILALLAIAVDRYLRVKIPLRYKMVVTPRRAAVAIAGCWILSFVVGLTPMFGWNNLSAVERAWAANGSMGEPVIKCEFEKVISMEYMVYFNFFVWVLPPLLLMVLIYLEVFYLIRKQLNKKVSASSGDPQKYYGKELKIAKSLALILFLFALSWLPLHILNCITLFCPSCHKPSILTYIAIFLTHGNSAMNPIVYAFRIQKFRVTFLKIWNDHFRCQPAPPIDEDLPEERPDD

K+ Channel hERG = K+ Channel hERG (Homo sapiens, UniProt Q12809); experiment: receptor screen, K+ Channel hERG; type: binding; conditions: read-out: Ki K+ Channel hERG; receptor screen, [3H]Astemizole
K+ Channel hERG, sequence (Q12809 whole entry): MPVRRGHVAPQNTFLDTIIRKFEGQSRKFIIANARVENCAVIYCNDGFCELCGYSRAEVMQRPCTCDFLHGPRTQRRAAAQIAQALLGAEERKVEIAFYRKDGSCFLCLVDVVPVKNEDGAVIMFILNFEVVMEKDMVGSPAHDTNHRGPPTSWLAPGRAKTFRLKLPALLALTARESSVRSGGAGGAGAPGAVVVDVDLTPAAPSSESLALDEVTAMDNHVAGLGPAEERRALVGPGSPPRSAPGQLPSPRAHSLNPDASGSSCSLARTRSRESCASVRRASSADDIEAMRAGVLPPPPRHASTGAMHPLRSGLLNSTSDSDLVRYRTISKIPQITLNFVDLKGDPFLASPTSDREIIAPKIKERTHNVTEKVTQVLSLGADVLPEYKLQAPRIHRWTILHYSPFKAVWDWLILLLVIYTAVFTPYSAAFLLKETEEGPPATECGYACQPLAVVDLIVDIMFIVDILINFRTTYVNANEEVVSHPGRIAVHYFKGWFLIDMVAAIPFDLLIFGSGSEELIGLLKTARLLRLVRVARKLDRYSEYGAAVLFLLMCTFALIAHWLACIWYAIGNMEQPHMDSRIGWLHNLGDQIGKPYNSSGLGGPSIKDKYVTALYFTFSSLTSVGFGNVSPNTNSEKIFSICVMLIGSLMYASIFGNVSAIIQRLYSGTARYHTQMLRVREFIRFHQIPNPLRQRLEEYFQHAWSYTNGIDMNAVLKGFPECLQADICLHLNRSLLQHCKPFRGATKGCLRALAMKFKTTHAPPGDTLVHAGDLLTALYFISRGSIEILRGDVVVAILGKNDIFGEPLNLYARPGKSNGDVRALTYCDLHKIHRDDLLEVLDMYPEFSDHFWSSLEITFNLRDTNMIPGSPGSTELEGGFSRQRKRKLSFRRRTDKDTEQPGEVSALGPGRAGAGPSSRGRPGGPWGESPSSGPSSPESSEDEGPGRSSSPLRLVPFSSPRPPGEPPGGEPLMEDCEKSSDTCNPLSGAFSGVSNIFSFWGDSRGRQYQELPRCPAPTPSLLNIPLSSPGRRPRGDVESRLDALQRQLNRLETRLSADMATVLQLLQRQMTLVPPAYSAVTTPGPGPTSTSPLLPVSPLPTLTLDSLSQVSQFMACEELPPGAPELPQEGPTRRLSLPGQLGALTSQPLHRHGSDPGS

Muscarinic M3, sequence (P20309 whole entry): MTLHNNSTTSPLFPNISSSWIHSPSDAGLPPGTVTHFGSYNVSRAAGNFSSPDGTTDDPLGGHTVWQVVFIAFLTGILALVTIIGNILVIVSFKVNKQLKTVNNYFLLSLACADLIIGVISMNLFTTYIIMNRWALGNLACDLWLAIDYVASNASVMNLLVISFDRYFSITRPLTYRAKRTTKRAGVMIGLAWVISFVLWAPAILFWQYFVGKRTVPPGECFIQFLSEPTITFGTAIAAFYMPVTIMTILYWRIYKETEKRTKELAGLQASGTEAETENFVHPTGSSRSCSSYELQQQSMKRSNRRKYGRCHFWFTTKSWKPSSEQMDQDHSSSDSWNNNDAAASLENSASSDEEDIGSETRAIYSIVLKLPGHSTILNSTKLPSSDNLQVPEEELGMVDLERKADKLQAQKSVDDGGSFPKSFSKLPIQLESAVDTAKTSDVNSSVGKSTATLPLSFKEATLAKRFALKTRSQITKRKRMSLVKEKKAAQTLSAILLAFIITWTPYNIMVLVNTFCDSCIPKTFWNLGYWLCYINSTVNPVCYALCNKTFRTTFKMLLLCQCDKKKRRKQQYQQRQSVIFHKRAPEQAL

For `CN1C2CCC1CC(OC(c1ccccc1)c1ccc(Cl)cc1)C2` (stereo not drawn) [4-Cl-BZT, 4′-chloro-3α-(diphenylmethoxy)tropane], the Ki (DAT) is given as 10.5 ± 1.21 nM, the Ki (Muscarinic M3) is given as 0.384 ± 0.043 nM and the Ki (SERT) is given as 5120 ± 395 nM. For the same compound, the Ki (Muscarinic M2) was 5.88 ± 0.63 nM, the “place conditioning (time allocated to compound-paired compartment)” value (rats) was “did not increase the time allocated to the compound-paired compartment” and the “Ki Glutamate, NMDA, phencyclidine” value [1] was “inactive”. For the same compound, the Ki (NET) was 1470 ± 180 nM, the “Ki Adenosine A1” value (Adenosine A1) was “inactive” and the Ki (K+ Channel hERG) was 804 ± 300 nM.

— paper PMC3758386 (Psychopharmacology, 2013)
